Test results: the supplement of paper PMC12698765
Counter-ions that a name gives are not always drawn. ± gives the standard deviation of the averaged measurements.

Columns and labels:
[1] = test system: 409B2 hiPSC (iCRISPR Cas9, FRMD7 editing); assay: cell survival relative to solvent control (fold (ratio to mock)); higher = more surviving cells
Procedure: (§1)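 Subset screen of 55 drugs tested at 5 concentrations around the effective screening dose, in 409B2 iCRISPR Cas9 hiPSCs editing FRMD7 with a ssDNA donor. Drugs were applied for 24 h. Viability was read by resazurin and editing outcomes by amplicon sequencing (HDR, NHEJ <2 bp microhomology, MMEJ ≥2 bp microhomology). Values are relative to solvent mock controls; two biological replicates.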

[2] = test system: 409B2 hiPSC (iCRISPR Cas9, FRMD7 editing); assay: MMEJ-attributed deletion frequency relative to solvent control (fold (ratio to mock)); higher = more MMEJ outcomes
Procedure: as §1

[3] = test system: 409B2 hiPSC (iCRISPR Cas9, FRMD7 editing); assay: HDR (precise edit) frequency relative to solvent control (fold (ratio to mock)); higher = more homology-directed repair outcomes
Procedure: as §1

[4] = test system: 409B2 hiPSC (iCRISPR Cas9, FRMD7 editing); assay: NHEJ-attributed indel frequency relative to solvent control (fold (ratio to mock)); higher = more NHEJ outcomes
Procedure: as §1

Work on `O=C(c1cc(Cc2n[nH]c(=O)c3ccccc23)ccc1F)N1CCN(C(=O)C2CC2)CC1` (in DMSO) yielded a cell survival ([1]; 200 nM) of 0.395, a cell survival ([1]; 500 nM) of 0.388 and a cell survival ([1]; 1000 nM) of 0.217. For the same molecule, the cell survival ([1]; 2000 nM) was 0.106, the cell survival ([1]; 5000 nM) was 0.0246 and the MMEJ-attributed deletion frequency ([2]; 200 nM) was 0.9 ± 0.073. It also gave an MMEJ-attributed deletion frequency ([2]; 500 nM) of 0.64 ± 0.079, an MMEJ-attributed deletion frequency ([2]; 1000 nM) of 0.705 ± 0.18 and an MMEJ-attributed deletion frequency ([2]; 2000 nM) of 0.614 ± 0.013. It also gave an MMEJ-attributed deletion frequency ([2]; 5000 nM) of 0.746 ± 0.11, an HDR ([3]; 200 nM) of 1.28 ± 0.18 and an HDR ([3]; 500 nM) of 1.18 ± 0.16. It also gave an HDR ([3]; 1000 nM) of 1.341 ± 0.0076, an HDR ([3]; 2000 nM) of 1.03 ± 0.017 and an HDR ([3]; 5000 nM) of 0.432 ± 0.03. The NHEJ-attributed indel frequency ([4]; 200 nM) was 0.814 ± 0.042, the NHEJ-attributed indel frequency ([4]; 500 nM) was 0.78 ± 0.042 and the NHEJ-attributed indel frequency ([4]; 1000 nM) was 0.698 ± 0.076. It also gave an NHEJ-attributed indel frequency ([4]; 2000 nM) of 0.6123 ± 0.0021 and an NHEJ-attributed indel frequency ([4]; 5000 nM) of 0.513 ± 0.04.

`C[C@@H]1O[C@@H](O[C@@H]2[C@@H](O)[C@H](OCCc3ccc(O)c(O)c3)O[C@H](CO)[C@H]2OC(=O)/C=C/c2ccc(O)c(O)c2)[C@H](O)[C@H](O)[C@H]1O` [Verbascoside] (in DMSO) showed a cell survival ([1]; 20 nM) of 0.884, a cell survival ([1]; 50 nM) of 1.1 and a cell survival ([1]; 100 nM) of 0.99. It also gave a cell survival ([1]; 200 nM) of 1.11, a cell survival ([1]; 500 nM) of 1.04 and an MMEJ-attributed deletion frequency ([2]; 20 nM) of 1.01 ± 0.02. The MMEJ-attributed deletion frequency ([2]; 50 nM) was 0.993 ± 0.082, the MMEJ-attributed deletion frequency ([2]; 100 nM) was 1.06 ± 0.06 and the MMEJ-attributed deletion frequency ([2]; 200 nM) was 0.976 ± 0.13. It also gave an MMEJ-attributed deletion frequency ([2]; 500 nM) of 1.02 ± 0.087, an HDR ([3]; 20 nM) of 1.1 ± 0.064 and an HDR ([3]; 50 nM) of 1.13 ± 0.017. The HDR ([3]; 100 nM) was 1.024 ± 0.0069, the HDR ([3]; 200 nM) was 1.04 ± 0.044 and the HDR ([3]; 500 nM) was 1.11 ± 0.012. The NHEJ-attributed indel frequency ([4]; 20 nM) was 0.964 ± 0.014, the NHEJ-attributed indel frequency ([4]; 50 nM) was 1.01 ± 0.033 and the NHEJ-attributed indel frequency ([4]; 100 nM) was 0.994 ± 0.03. It also gave an NHEJ-attributed indel frequency ([4]; 200 nM) of 1 ± 0.019 and an NHEJ-attributed indel frequency ([4]; 500 nM) of 0.975 ± 0.016.

In the case of `CC(O)C(=O)O` (stereo not given) [lactate] (in H2O), the cell survival ([1]; 200 nM) is reported as 1.15, the cell survival ([1]; 500 nM) is reported as 1.08 and the cell survival ([1]; 1000 nM) is reported as 0.963. The cell survival ([1]; 2000 nM) was 1.06, the cell survival ([1]; 5000 nM) was 1.15 and the MMEJ-attributed deletion frequency ([2]; 200 nM) was 1.01 ± 0.044. It also gave an MMEJ-attributed deletion frequency ([2]; 500 nM) of 0.849 ± 0.074, an MMEJ-attributed deletion frequency ([2]; 1000 nM) of 0.952 ± 0.094 and an MMEJ-attributed deletion frequency ([2]; 2000 nM) of 1.05 ± 0.096. It also gave an MMEJ-attributed deletion frequency ([2]; 5000 nM) of 1 ± 0.094, an HDR ([3]; 200 nM) of 1.02 ± 0.065 and an HDR ([3]; 500 nM) of 0.941 ± 0.056. For the same molecule, the HDR ([3]; 1000 nM) was 0.946 ± 0.091, the HDR ([3]; 2000 nM) was 1.01 ± 0.1 and the HDR ([3]; 5000 nM) was 1.005 ± 0.0083. For the same molecule, the NHEJ-attributed indel frequency ([4]; 200 nM) was 0.984 ± 0.021, the NHEJ-attributed indel frequency ([4]; 500 nM) was 1.02 ± 0.028 and the NHEJ-attributed indel frequency ([4]; 1000 nM) was 1.04 ± 0.03. The NHEJ-attributed indel frequency ([4]; 2000 nM) was 0.998 ± 0.047 and the NHEJ-attributed indel frequency ([4]; 5000 nM) was 1 ± 0.013.

`CC(=O)O[C@@]12CO[C@@H]1C[C@@H](O)[C@@]1(C)C(=O)[C@H](O)C3=C(C)[C@@H](O)C[C@@](O)([C@@H](OC(=O)c4ccccc4)[C@H]21)C3(C)C` [10-DAB (10-Deacetylbaccatin)] (in DMSO) gave a cell survival ([1]; 200 nM) of 0.914, a cell survival ([1]; 500 nM) of 1.06 and a cell survival ([1]; 1000 nM) of 0.177. It also gave a cell survival ([1]; 2000 nM) of 0.00356, a cell survival ([1]; 5000 nM) of 0.00663 and an MMEJ-attributed deletion frequency ([2]; 200 nM) of 1.06 ± 0.14. It also gave an MMEJ-attributed deletion frequency ([2]; 500 nM) of 1.02 ± 0.049, an MMEJ-attributed deletion frequency ([2]; 1000 nM) of 0.936 ± 0.083 and an MMEJ-attributed deletion frequency ([2]; 2000 nM) of 0.561 ± 0.18. The MMEJ-attributed deletion frequency ([2]; 5000 nM) was 0.4879 ± 0.0029, the HDR ([3]; 200 nM) was 1.063 ± 0.0036 and the HDR ([3]; 500 nM) was 1 ± 0.049. It also gave an HDR ([3]; 1000 nM) of 0.816 ± 0.17, an HDR ([3]; 2000 nM) of 0.304 ± 0.013 and an HDR ([3]; 5000 nM) of 0.339 ± 0.06. The NHEJ-attributed indel frequency ([4]; 200 nM) was 0.906 ± 0.017, the NHEJ-attributed indel frequency ([4]; 500 nM) was 0.983 ± 0.014 and the NHEJ-attributed indel frequency ([4]; 1000 nM) was 0.918 ± 0.075. For the same molecule, the NHEJ-attributed indel frequency ([4]; 2000 nM) was 0.488 ± 0.08 and the NHEJ-attributed indel frequency ([4]; 5000 nM) was 0.522 ± 0.1.

In the case of `CCCCCCCCCCCCCC(=O)O` [Myristic Acid] (in DMSO), the cell survival ([1]; 20 nM) is reported as 1.01, the cell survival ([1]; 50 nM) is reported as 1.23 and the cell survival ([1]; 100 nM) is reported as 1.07. For the same molecule, the cell survival ([1]; 200 nM) was 1.25, the cell survival ([1]; 500 nM) was 1.49 and the MMEJ-attributed deletion frequency ([2]; 20 nM) was 0.977 ± 0.13. It also gave an MMEJ-attributed deletion frequency ([2]; 50 nM) of 0.921 ± 0.13, an MMEJ-attributed deletion frequency ([2]; 100 nM) of 1.02 ± 0.2 and an MMEJ-attributed deletion frequency ([2]; 200 nM) of 1.1 ± 0.051. It also gave an MMEJ-attributed deletion frequency ([2]; 500 nM) of 1.03 ± 0.099, an HDR ([3]; 20 nM) of 1.04 ± 0.025 and an HDR ([3]; 50 nM) of 1.03 ± 0.072. It also gave an HDR ([3]; 100 nM) of 1.034 ± 0.01, an HDR ([3]; 200 nM) of 1.07 ± 0.019 and an HDR ([3]; 500 nM) of 1.1 ± 0.064. It also gave an NHEJ-attributed indel frequency ([4]; 20 nM) of 0.9964 ± 0.0076, an NHEJ-attributed indel frequency ([4]; 50 nM) of 1.0053 ± 2.8e-05 and an NHEJ-attributed indel frequency ([4]; 100 nM) of 1.016 ± 0.003. The NHEJ-attributed indel frequency ([4]; 200 nM) was 0.981 ± 0.024 and the NHEJ-attributed indel frequency ([4]; 500 nM) was 0.967 ± 0.0099.

For `CCc1c2c(nc3ccc(OC(=O)N4CCC(N5CCCCC5)CC4)cc13)-c1cc3c(c(=O)n1C2)COC(=O)[C@]3(O)CC` [Irinotecan HCl Trihydrate] (in DMSO), the cell survival ([1]; 200 nM) was 0.618, the cell survival ([1]; 500 nM) was 0.158 and the cell survival ([1]; 1000 nM) was 0.0216. For the same molecule, the cell survival ([1]; 2000 nM) was 0.00496, the cell survival ([1]; 5000 nM) was 0.00337 and the MMEJ-attributed deletion frequency ([2]; 200 nM) was 0.853 ± 0.043. For the same molecule, the MMEJ-attributed deletion frequency ([2]; 500 nM) was 0.688 ± 0.013, the MMEJ-attributed deletion frequency ([2]; 1000 nM) was 0.566 ± 0.31 and the MMEJ-attributed deletion frequency ([2]; 2000 nM) was 0.541 ± 0.16. The MMEJ-attributed deletion frequency ([2]; 5000 nM) was 0.575 ± 0.049, the HDR ([3]; 200 nM) was 1.097 ± 0.0069 and the HDR ([3]; 500 nM) was 0.954 ± 0.14. The HDR ([3]; 1000 nM) was 0.662 ± 0.22, the HDR ([3]; 2000 nM) was 0.16683 ± 7e-05 and the HDR ([3]; 5000 nM) was 0.149 ± 0.016. It also gave an NHEJ-attributed indel frequency ([4]; 200 nM) of 0.914 ± 0.024, an NHEJ-attributed indel frequency ([4]; 500 nM) of 0.694 ± 0.021 and an NHEJ-attributed indel frequency ([4]; 1000 nM) of 0.617 ± 0.21. It also gave an NHEJ-attributed indel frequency ([4]; 2000 nM) of 0.439 ± 0.01 and an NHEJ-attributed indel frequency ([4]; 5000 nM) of 0.434 ± 0.028.
